Assay results: patent US4432973A, “Benzoyl- and α-hydroxybenzyl-phenyl-glycosides and application thereof in therapeutics” (Societe de Recherches Industrielles (S.O.R.I.), priority 1980, dated 1984)

How the values were obtained:
[1] = Veinous thrombosis: veinous anti-thrombus activity; format: in vivo; details: Rattus norvegicus, ip, 50 mg/kg IP, 4 to 5 hours after administration, read-out: Diminution of veinous thrombus
[2] = Acute toxicity in the mouse by the I.P. route; format: in vivo; details: in vivo, ip
Source text: The acute toxicity was studied in the mouse by the I.P. route. It is expressed in the form of DL-50 (lethal dose involving the death of half of the animals) or DL-0 (maximum non-lethal dose).

[3] = Veinous thrombosis: veinous anti-thrombus activity; format: in vivo; details: Rattus norvegicus, ip, 100 mg/kg I.P., 4 to 5 hours after administration, read-out: Diminution of veinous thrombus
Procedure: The technique used is similar to the one described by Peterson-Zucker in Thrombo.Diath.Haemorh. 23, 1, (1970).
An occlusive thrombus is created in the […] vena cava of a rat by the combined action of an endothelial alteration and a veinous stasis for 15 mins. and 4 to 5 hours after administration of the product to be tested (100 mg/kg I.P.).

[4] = system: blood platelet aggregation; test: Spontaneous aggregation: blood platelet anti-aggregation activity; format: in vivo, rat (adult male); details: Platelet, ip; 100 mg/kg I.P., t=5 hours, rat
Procedure: The technique used is that of Sanders described in Laboratory Animal Science 27 (No. 5), pages 757-761 (1977).
After administration at 100 mg/kg I.P. (unless specified to the contrary in Table V hereinbelow) of the product to be tested to adult male reproducing rats, two blood samples are taken, one on sodium citrate and the other on sodium citrate treated with formaldehyde at instant t=5 hours.
After centrifugation of the samples, a platelet count is made on the supernatant liquid. The spontaneous aggregation index according to Wu and Hook Stroke 6, 521-524 (1975) is expressed by the relation: [formula]

[5] = Anti-ulcer activity: ulcer caused by aspirin; format: in vivo, rat (male Wistar); details: 100 mg/kg I.P.; aspirin 192 mg/kg per os; standardised to control batch and cimetidine (index 1)
Outline: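 Male Wistar rats weighing 180 to 200 g were fasted from t=0, when they received a first dose of the test product. At t=18 hours they were given 2 ml of an ulcer-forming suspension of aspirin at 192 mg/kg per os, followed by a second dose of the product. At t=22 hours the animals were sacrificed and their ulcers graded: 1 for small point-like, 3 for more extensive, 9 for highly extensive or very deep. Scores were standardised against a control batch and against cimetidine, the reference, assigned index 1.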

[6] = Anti-hypoxic activity: survival to hypoxia (nitrogen-oxygen 95:5); format: in vivo, mouse (Swiss male); details: I.P., 1/10th of LD-50 or 100 mg/kg when LD-0 ≥ 800 mg/kg; up to 15 minutes; mouse
Outline: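 Groups of 20 male Swiss mice (20–30 g) received compound i.p. at 1/10 LD-50, or 100 mg/kg when LD-0 ≥800 mg/kg, then were placed in nitrogen-oxygen 95:5 v/v. Survival time was recorded up to 15 min and expressed as % survival versus untreated controls; Duxil reference given at 18 mg/kg i.p.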

Compound | inhibition in vivo at 50 mg/kg [1] [%] | LD50 ([2]; I.P., read-out: DL-50 (lethal dose involving the death of half of the animals)) [mg/kg] | inhibition in vivo at 100 mg/kg [3] [%] | inhibition in vivo at 100 mg/kg [4] [%] | DL-0 (maximum non-lethal dose) [2] [mg/kg IP] | Ulcer index [5] | Survival (survival percentage to hypoxic aggression) [6]
Cc1ccc(C(O)c2cccc(O[C@@H]3OC[C@@H](O)[C@H](O)[C@H]3O)c2)cc1 (single isomer, unassigned) [Example 106] | ≥ 50 | 500 |  |  |  |  | 
Cc1cc(C(=O)c2ccccc2Cl)cc(C)c1O[C@@H]1OC[C@@H](O)[C@H](O)[C@H]1O [Example 102] |  |  | 30 to 49 | ≥ 40 | > 800 | 0.49 | +++ (higher than or equal to 80%)
